Measurements published in ChEMBL document CHEMBL1770081, “Inhibition and structural reliability of prenylated flavones from the stem bark of Morus lhou on β-secretase (BACE-1)” (Bioorg Med Chem Lett, 2011).
Blank lines part the entries; values can stand above or below the molecule they belong to.

What was measured:
Beta-secretase 1 [1] = biological target: T1, Beta-secretase 1 (Homo sapiens, UniProt P56817); assay: Inhibition of human recombinant BACE-1 expressed in HEK293 cells assessed as inhibition of amyloid precursor protein cleavage into amyloid beta after 60 mins using Rh-EVNLDAEFK-Quencher as a substrate by FRET assay; type: cell-based
Beta-secretase 1 [2] = biological target: T1, Beta-secretase 1; assay: Noncompetitive inhibition of human recombinant BACE-1 by Dixon plot analysis

T1 sequence (P56817 whole entry): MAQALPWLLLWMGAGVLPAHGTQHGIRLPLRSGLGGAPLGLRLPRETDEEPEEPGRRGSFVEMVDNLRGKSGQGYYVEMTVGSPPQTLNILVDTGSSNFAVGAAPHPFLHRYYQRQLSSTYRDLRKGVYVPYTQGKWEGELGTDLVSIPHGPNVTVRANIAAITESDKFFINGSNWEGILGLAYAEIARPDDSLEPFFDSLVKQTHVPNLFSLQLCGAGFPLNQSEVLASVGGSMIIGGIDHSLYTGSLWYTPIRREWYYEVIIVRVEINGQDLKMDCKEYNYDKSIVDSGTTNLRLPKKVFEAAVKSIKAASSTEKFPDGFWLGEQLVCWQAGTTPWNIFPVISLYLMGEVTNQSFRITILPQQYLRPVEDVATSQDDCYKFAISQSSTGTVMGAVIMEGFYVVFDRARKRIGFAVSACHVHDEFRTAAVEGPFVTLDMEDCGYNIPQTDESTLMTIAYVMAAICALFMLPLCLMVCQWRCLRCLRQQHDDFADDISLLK

Structure (SMILES): CC(C)=CC1Oc2cc(O)ccc2-c2oc3c4c(cc(O)c3c(=O)c21)OC(C)(C)C=C4 (configuration not stated) [CYCLOMORUSIN]
- IC50 (Beta-secretase 1 [1]): 101 µM

Structure (SMILES): CC(C)=CCc1c(-c2ccc(O)c3c2OC(C)(C)C=C3)oc2cc(O)cc(O)c2c1=O [KUWANON A]
- IC50 (Beta-secretase 1 [1]): 5.3 µM
- Ki (Beta-secretase 1 [2]): 10.6 µM

Structure (SMILES): CC(C)(O)CCc1c(-c2ccc(O)cc2O)oc2c3c(cc(O)c2c1=O)OC(C)(C)C=C3 [MORUSINOL]
- IC50 (Beta-secretase 1 [1]): 136 µM

Structure (SMILES): C/C(=C/Cc1c(-c2ccc(O)cc2O)oc2c3c(cc(O)c2c1=O)OC(C)(CO)C=C3)CO (configuration not stated) [MORMIN]
- IC50 (Beta-secretase 1 [1]): 103 µM

Structure (SMILES): CC1(C)C=Cc2c(cc(O)c3c(=O)c4c(oc23)-c2ccc(O)cc2OC(C(C)(C)O)C4)O1 (configuration not stated) [NEOCYCLOMORUSIN]
- IC50 (Beta-secretase 1 [1]): 146 µM

Continued, values first:

- IC50 (Beta-secretase 1 [1]): 60.6 µM
- Ki (Beta-secretase 1 [2]): 82.6 µM
Structure (SMILES): O=c1cc(-c2ccc(O)cc2O)oc2cc(O)cc(O)c12 [NORARTOCARPETIN]

- IC50 (Beta-secretase 1 [1]): 59.4 µM
- Ki (Beta-secretase 1 [2]): 64.1 µM
Structure (SMILES): CC(C)=CCc1c(-c2ccc(O)cc2O)oc2c3c(cc(O)c2c1=O)OC(C)(C)C=C3 [MORUSIN]

- IC50 (Beta-secretase 1 [1]): 3.4 µM
- Ki (Beta-secretase 1 [2]): 2.2 µM
Structure (SMILES): CC(C)=CCc1c(-c2ccc(O)cc2O)oc2c(CC=C(C)C)c(O)cc(O)c2c1=O [KUWANON C]
